Experiments:
Assay in all cases: relative viability (nuclei count vs DMSO), 5 days (fraction); higher = more cells survive
[1] = compound: C1CNCCC1C2=CC(=NN2)C3=CC=NC=C3 + COc1cccc2cc(-c3nc([C@H]4CC[C@H](C(=O)O)CC4)n4ncnc(N)c34)[nH]c12 [OSI-027] (partner 0.5 µM)
In short: (§1)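 The day after seeding in 1536-well plates, lung cancer cell lines were treated by pin tool with a single drug, or with a fixed anchor-drug dose together with five library-drug doses (not always all listed) in √10 steps. After 5 days, a combined fix-and-stain solution (final 0.05% Triton X-100, 1% formaldehyde, 1 ug/ml Hoechst) was added. Nuclei counted on 4× images gave relative viability as treated counts over vehicle counts, reported as the median of duplicate plates.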

Tanzisertib + OSI-027 = compound: O[C@H]1CC[C@H](Nc2ncc3nc(Nc4c(F)cc(F)cc4F)n([C@H]4CCOC4)c3n2)CC1 [Tanzisertib] + COc1cccc2cc(-c3nc([C@H]4CC[C@H](C(=O)O)CC4)n4ncnc(N)c34)[nH]c12 [OSI-027] (partner 0.5 µM)
In short: as §1

[2] = compound: C[C@@H](N)c1ccc(C(=O)Nc2ccnc3[nH]ccc23)cc1 + NC(=O)Nc1cc(-c2cccc(F)c2)sc1C(=O)N[C@H]1CCCNC1 [AZD7762] (partner 0.2 µM)
In short: as §1

Tanzisertib + Phenformin = compound: O[C@H]1CC[C@H](Nc2ncc3nc(Nc4c(F)cc(F)cc4F)n([C@H]4CCOC4)c3n2)CC1 [Tanzisertib] + N=C(N)NC(=N)NCCc1ccccc1 [Phenformin] (partner 250 µM)
In short: as §1

Cell Line	relative viability ([1]; first compound 0.08 µM)	relative viability ([1]; first compound 0.8 µM)	relative viability ([1]; first compound 2.53 µM)	relative viability ([1]; first compound 8 µM)	relative viability (Tanzisertib + OSI-027; first compound 0.08 µM)	relative viability (Tanzisertib + OSI-027; first compound 0.253 µM)	relative viability (Tanzisertib + OSI-027; first compound 0.8 µM)	relative viability (Tanzisertib + OSI-027; first compound 2.53 µM)	relative viability (Tanzisertib + OSI-027; first compound 8 µM)	relative viability ([2]; first compound 0.04 µM)	relative viability ([2]; first compound 0.1265 µM)	relative viability ([2]; first compound 0.4 µM)	relative viability ([2]; first compound 1.265 µM)	relative viability ([2]; first compound 4 µM)	relative viability (Tanzisertib + Phenformin; first compound 0.08 µM)	relative viability (Tanzisertib + Phenformin; first compound 0.253 µM)	relative viability (Tanzisertib + Phenformin; first compound 0.8 µM)	relative viability (Tanzisertib + Phenformin; first compound 2.53 µM)	relative viability (Tanzisertib + Phenformin; first compound 8 µM)
NCI-H2126	0.724	0.591	0.725	0.698	0.8	0.723	0.742	0.614	0.548	1.01	1.04	1.17	0.982	1.12	0.566	0.548	0.545	0.534	0.516
NCI-H1944	0.41	0.413	0.546	0.423	0.4	0.393	0.426	0.389	0.338	0.479	0.542	0.611	0.798	0.606	0.23	0.197	0.21	0.198	0.203
NCI-H2342	0.627	0.577	0.634	0.674	0.663	0.718	0.571	0.537	0.583	0.508	0.643	0.534	0.611	0.584	0.618	0.643	0.57	0.557	0.532
NCI-H358	0.593	0.713	0.834	0.698	0.817	0.637	0.661	0.655	0.501	0.605	0.47	0.485	0.478	0.472	0.361	0.318	0.322	0.271	0.212
NCI-H1734	0.543	0.616	0.674	0.653	0.758	0.581	0.588	0.723	0.586	0.461	0.526	0.575	0.414	0.57	0.469	0.406	0.356	0.387	0.334
A-427	0.463	0.477	0.473	0.499	0.547	0.525	0.538	0.414	0.283	0.708	0.751	0.779	0.806	0.665	0.394	0.411	0.413	0.326	0.22
RERF-LC-KJ	0.537	0.521	0.581	0.576	0.625	0.566	0.598	0.503	0.489	1.08	1.04	1.33	1.08	1.18	0.45	0.39	0.439	0.4	0.384
NCI-H727	0.613	0.579	0.816	0.815	0.618	0.564	0.643	0.483	0.647	1.04	0.801	0.788	0.996	0.833	0.581	0.504	0.458	0.497	0.465
LCLC-97TM1	0.57	0.508	0.519	0.531	0.541	0.435	0.495	0.368	0.517	0.302	0.234	0.425	0.314	0.639	0.471	0.425	0.38	0.476	0.524
BEN	0.303	0.295	0.233	0.33	0.299	0.281	0.293	0.314	0.288	0.607	0.879	0.841	0.913	0.663	0.254	0.235	0.275	0.266	0.255
LC-2-ad		0.868	0.936	0.908	1.02	0.744	0.911	0.915	0.606	0.763	0.787	0.823	0.787	0.599	0.648	0.58	0.638	0.651	0.433
ABC-1	0.556	0.484	0.65	0.575	0.471	0.469	0.469	0.511	0.461		0.861	0.808		0.554	0.242	0.251	0.226	0.211	0.218
NCI-H647	0.631	0.68	0.66	0.589	0.694	0.644	0.569	0.63	0.69	0.397	0.423	0.517	0.392	0.439	0.531	0.703	0.481	0.487	0.555
NCI-H1755	0.738		0.754	0.69	0.747	0.77	0.676	0.706	0.517	0.408	0.46	0.451	0.362	0.397	0.692	0.612	0.595	0.649	0.632
EPLC-272H	0.279	0.348	0.318	0.292	0.285	0.264	0.25	0.314	0.251	0.0944	0.216	0.18		0.439	0.329	0.311	0.295	0.327	0.302
NCI-H1437	0.835	0.922	0.896	0.97	0.85	0.822	0.943	0.902	0.908	1.12	1.13	1.14	1.13	1.04	0.287	0.314	0.303	0.276	0.283
EKVX	0.646	0.72	0.734	0.718	0.872	0.749	0.613	0.612	0.598	0.708	0.714	0.896	0.745	0.707	0.227	0.244	0.253	0.227	0.205

Cell Line	relative viability ([1]; first compound 0.08 µM)	relative viability ([1]; first compound 0.8 µM)	relative viability ([1]; first compound 2.53 µM)	relative viability ([1]; first compound 8 µM)	relative viability (Tanzisertib + OSI-027; first compound 0.08 µM)	relative viability (Tanzisertib + OSI-027; first compound 0.253 µM)	relative viability (Tanzisertib + OSI-027; first compound 0.8 µM)	relative viability (Tanzisertib + OSI-027; first compound 2.53 µM)	relative viability (Tanzisertib + OSI-027; first compound 8 µM)	relative viability ([2]; first compound 0.04 µM)	relative viability ([2]; first compound 0.1265 µM)	relative viability ([2]; first compound 0.4 µM)	relative viability ([2]; first compound 1.265 µM)	relative viability ([2]; first compound 4 µM)	relative viability (Tanzisertib + Phenformin; first compound 0.08 µM)	relative viability (Tanzisertib + Phenformin; first compound 0.253 µM)	relative viability (Tanzisertib + Phenformin; first compound 0.8 µM)	relative viability (Tanzisertib + Phenformin; first compound 2.53 µM)	relative viability (Tanzisertib + Phenformin; first compound 8 µM)
NCI-H1651	0.649	0.767	0.827	0.76	0.712	0.58	0.833	0.614	0.678	0.484	0.493	0.574	0.737	0.675	0.327	0.371	0.305	0.322	0.332
HCC-15	0.677	0.682	0.694	0.693	0.834	0.652	0.735	0.606	0.327	1.19	1.23	1.4	1.18	1.28	0.576	0.487	0.509	0.467	0.423
LCLC-103H	0.432	0.485	0.447	0.457	0.458	0.44	0.438	0.427	0.509	0.709	0.77	0.757	0.658	0.522	0.375	0.327	0.309	0.345	0.343
NCI-H23	0.676	0.655	0.653	0.67	0.587	0.547	0.575	0.747	0.198	0.268	0.169	0.372		0.539	0.808	0.808	0.84	0.795	0.668
NCI-H1792	0.74	0.766	0.706	0.749	0.752	0.716	0.728	0.676	0.446	0.564	0.534	0.69	0.72	0.578	0.233	0.467	0.544	0.38	0.475
NCI-H596	0.838	0.763	0.784	0.736	0.779	0.666	0.766	0.63	0.555	1.02	1.1	0.828	1.01	1.04	0.968	0.626	0.882	0.675	0.602
NCI-H460	0.496	0.833	0.775	0.676	0.664	0.683	0.549	0.624	0.502	0.66	0.656	0.844	0.873	0.913	0.572	0.522	0.489	0.54	0.523
HCC-366	1.12	1.01	1.05	0.878	0.968	0.888	0.942	0.977	0.051	0.174	0.32	0.434	0.588	0.359	0.671	0.599	0.651	0.681	0.646
NCI-H2085	0.818	0.515	0.682	0.935	0.937	0.666	0.804	0.705	0.515	0.947	0.914	0.96	1.13	1.09	0.739	0.724	0.81	0.715	0.461
NCI-H522	0.731	0.813	0.693	0.709	0.802	0.831	0.748	0.696	0.626	0.833	0.759	0.979	0.971	0.813	0.783	0.57	0.667	0.677	0.572
PC-14	0.722	1.12	0.986	0.822	1.28	0.745	0.723	0.816	0.427	0.251	0.347	0.364	0.313	0.469	0.471	0.746	0.671	0.599	0.115
HOP-62	0.816	0.912	0.831	0.773	0.845	0.868	0.76	0.833	0.848	0.534	0.471	0.746	0.685	0.402	0.758	0.709	0.671	0.671	0.729
NCI-H2087	0.471	0.616	0.619	0.573	0.564	0.578	0.712	0.521	0.338	1.29	1.06	1.07	1.06	1.08	0.464	0.502	0.463	0.447	0.322
NCI-H1793	0.261	0.246	0.302	0.23	0.27	0.262	0.285	0.292	0.197	0.409	0.62	0.442		0.73	0.448	0.339	0.41	0.379	0.367
PC-3 [JPC-3]	0.827	0.776	0.835	0.705	0.862	0.721	0.833	0.789	0.699	1.09	0.87	0.925	1.05	0.912	0.488	0.492	0.509	0.494	0.461
H3255	0.52	0.629	0.577	0.759	0.513	0.644	0.659	0.479	0.48	0.929	1.07	1.11	1.07	0.724	0.413	0.371	0.387	0.349	0.231
EMC-BAC-2	0.379	0.368	0.421	0.368	0.404	0.383	0.383	0.37	0.363	0.946	1.09	1.17	1.03	0.895	0.51	0.507	0.528	0.51	0.502

Source: the supplement of paper PMC10307832
